Data as given in ChEMBL document CHEMBL1129217, “Synthesis and pharmacology of the 1,2-dimethylheptyl-8-THC isomers: exceptionally potent cannabinoids” (Bioorg Med Chem Lett, 1997).

Assays:
[1] = system: Mus musculus; test: The compound was evaluated in vivo for antinociception (TF) activity in a mouse model; format: functional
[2] = molecular target: Cannabinoid receptor (Homo sapiens, UniProt P34972+P21554); test: The affinity of compound for the cannabinoid brain receptor was determined by measuring its ability to displace [3H]CP-55940 from its binding site in a membrane preparation; format: cell membranes
[3] = system: Mus musculus; test: The compound was evaluated in vivo for hypothermia(as rectal temperature) in a mouse model; format: functional
[4] = system: Mus musculus; test: The compound was evaluated in vivo for spontaneous activity(SA) in a mouse model; format: functional

SMILES | ED50 [1] | Ki [2] | ED50 [3] | ED50 [4]
CCCCCCC(C)(C)c1cc(O)c2c(c1)OC(C)(C)[C@@H]1CC=C(C)C[C@@H]21 | 0.14 µmol/kg | 0.77 nM | 0.15 µmol/kg | 0.27 µmol/kg
CC1=CC[C@H]2[C@@H](C1)c1c(O)cc(C(C)C(C)C3CCCC3)cc1OC2(C)C (stereo partly specified) | 0.03 µmol/kg | 0.46 nM | 0.07 µmol/kg | 0.03 µmol/kg
CC1=CC[C@@H]2[C@@H](C1)c1c(O)cc(C(C)C(C)C3CCCC3)cc1OC2(C)C (stereo partly specified) | 0.42 µmol/kg | 0.84 nM | 0.63 µmol/kg | 0.45 µmol/kg
CC1=CC[C@@H]2[C@H](C1)c1c(O)cc(C(C)C(C)C3CCCC3)cc1OC2(C)C (stereo partly specified) | 0.1 µmol/kg | 0.6 nM | 0.07 µmol/kg | 0.04 µmol/kg
CCCCCCC(C)(C)c1cc(O)c2c(c1)OC(C)(C)[C@@H]1CC=C(CO)C[C@@H]21 | 0.02 µmol/kg | – | 0.05 µmol/kg | 0.01 µmol/kg
CCCCCc1cc(O)c2c(c1)OC(C)(C)[C@@H]1CC=C(C)C[C@@H]21 [DELTA-8-TETRAHYDROCANNABINOL] | 4.5 µmol/kg | – | 4.8 µmol/kg | 2.9 µmol/kg
CC1=CC[C@H]2[C@H](C1)c1c(O)cc(C(C)C(C)C3CCCC3)cc1OC2(C)C (stereo partly specified) | 0.18 µmol/kg | 0.81 nM | 0.19 µmol/kg | 0.12 µmol/kg
